Test results as given in ChEMBL document CHEMBL4425165, “Discovery of Pyrazolo[1,5-a]pyrimidine TTK Inhibitors: CFI-402257 is a Potent, Selective, Bioavailable Anticancer Agent” (ACS Med Chem Lett, 2016).
In brackets after ≈: the same amount, converted by molar mass.

Columns and labels:
OVCAR-3 = experiment: Growth inhibition of human OVCAR3 cells measured after 5 days by sulforhodamine B assay; format: functional; conditions: OVCAR-3, 120 h
[1] = Dissociation constant, pKa of the compound; format: physicochemical
[2] = AUC in athymic CD-1 nude mouse at 10 mg/kg, po by LC-MS/MS analysis; format: ADME, organism-based; conditions: in vivo
[3] = target: T1, Dual specificity protein kinase TTK (Homo sapiens, UniProt P33981)
T1 sequence (P33981 whole entry): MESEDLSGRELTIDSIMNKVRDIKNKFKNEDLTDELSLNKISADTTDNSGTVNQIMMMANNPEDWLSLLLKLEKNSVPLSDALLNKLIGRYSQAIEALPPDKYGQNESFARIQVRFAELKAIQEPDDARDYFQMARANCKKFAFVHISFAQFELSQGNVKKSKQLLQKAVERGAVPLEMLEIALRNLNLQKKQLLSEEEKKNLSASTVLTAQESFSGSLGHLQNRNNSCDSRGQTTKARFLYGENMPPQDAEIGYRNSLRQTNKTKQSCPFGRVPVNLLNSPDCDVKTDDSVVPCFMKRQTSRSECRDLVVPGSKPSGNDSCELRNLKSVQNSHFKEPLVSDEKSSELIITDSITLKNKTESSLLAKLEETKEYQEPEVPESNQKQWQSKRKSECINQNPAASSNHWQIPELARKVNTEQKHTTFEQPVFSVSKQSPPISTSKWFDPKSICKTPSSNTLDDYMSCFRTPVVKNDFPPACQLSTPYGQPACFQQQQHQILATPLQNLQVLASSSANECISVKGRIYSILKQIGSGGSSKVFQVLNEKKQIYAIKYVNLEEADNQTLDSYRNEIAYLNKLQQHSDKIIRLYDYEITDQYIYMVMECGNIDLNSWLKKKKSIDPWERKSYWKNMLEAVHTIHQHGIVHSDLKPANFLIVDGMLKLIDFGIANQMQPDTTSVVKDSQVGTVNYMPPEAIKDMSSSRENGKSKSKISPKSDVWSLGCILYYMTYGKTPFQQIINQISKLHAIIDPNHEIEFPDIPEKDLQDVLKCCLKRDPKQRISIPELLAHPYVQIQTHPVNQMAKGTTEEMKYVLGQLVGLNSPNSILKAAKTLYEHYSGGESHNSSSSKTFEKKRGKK

[4] = Solubility of the compound at pH 7.4; format: physicochemical; conditions: buffer
HCT-116 [5] = experiment: Growth inhibition of human HCT116 cells measured after 5 days by sulforhodamine B assay; format: functional; conditions: HCT-116, 120 h
[6] = Cmax in athymic CD-1 nude mouse at 10 mg/kg, po by LC-MS/MS analysis; format: ADME, organism-based; design: dose 10 mg/kg, route oral; conditions: in vivo
[7] = Solubility of the compound at pH 2; format: physicochemical; conditions: buffer
MDA-MB-468 = experiment: Growth inhibition of human MDA-MB-468 cells measured after 5 days by sulforhodamine B assay; format: functional; conditions: MDA-MB-468, 120 h
Cytochrome P450 3A4 = Cytochrome P450 3A4 (Homo sapiens, UniProt P08684); experiment: Inhibition of CYP3A4 (unknown origin) preincubated for 10 mins followed by addition of BFC as substrate measured after 10 mins in presence of NADP by fluorescence analysis; format: ADME
Sequence of Cytochrome P450 3A4 (P08684 whole entry): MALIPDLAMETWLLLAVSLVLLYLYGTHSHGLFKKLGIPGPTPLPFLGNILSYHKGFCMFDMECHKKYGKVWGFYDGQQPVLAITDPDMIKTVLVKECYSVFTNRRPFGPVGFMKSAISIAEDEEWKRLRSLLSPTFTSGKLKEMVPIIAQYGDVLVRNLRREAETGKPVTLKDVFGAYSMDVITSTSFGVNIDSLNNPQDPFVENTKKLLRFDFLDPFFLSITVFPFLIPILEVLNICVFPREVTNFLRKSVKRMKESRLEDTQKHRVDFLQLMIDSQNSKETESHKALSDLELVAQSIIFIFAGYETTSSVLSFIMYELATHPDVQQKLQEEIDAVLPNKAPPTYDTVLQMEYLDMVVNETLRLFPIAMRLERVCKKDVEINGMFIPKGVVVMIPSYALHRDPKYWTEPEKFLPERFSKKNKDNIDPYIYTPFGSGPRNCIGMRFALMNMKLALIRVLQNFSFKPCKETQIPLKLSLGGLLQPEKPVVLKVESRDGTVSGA

[8] = Bioavailability in beagle dog at 5 mg/kg by LC-MS/MS analysis; format: ADME, organism-based, Canis lupus familiaris; conditions: in vivo
[9] = Bioavailability in Sprague-Dawley rat at 5 mg/kg by LC-MS/MS analysis; format: ADME, organism-based; conditions: in vivo
[10] = Toxicity in po dosed athymic nude mouse; format: organism-based; conditions: in vivo
[11] = Clearance in Sprague-Dawley rat at 1 mg/kg, iv or 5 mg/kg, po by LC-MS/MS analysis; format: ADME, organism-based; conditions: in vivo
[12] = AUC (0 to infinity) in Sprague-Dawley rat at 5 mg/kg, po by LC-MS/MS analysis; format: ADME, organism-based; design: dose 5 mg/kg, time infinity, route oral; conditions: in vivo
HT-29 = experiment: Antitumor activity against human HT-29 cells xenografted in athymic nude mouse assessed as tumor growth inhibition at 15 mg/kg, po qd measured on day 21; format: functional; conditions: HT-29, po, 504 h, read-out: TGI
HCT-116 [13] = experiment: Antitumor activity against human HCT116 cells xenografted in athymic nude mouse assessed as tumor growth inhibition at 15 mg/kg, po qd measured on day 21; format: functional; conditions: HCT-116, po, 504 h, read-out: TGI
[14] = AUC (0 to infinity) in beagle dog at 5 mg/kg, po by LC-MS/MS analysis; format: ADME, organism-based, Canis lupus familiaris; design: dose 5 mg/kg, route oral, time infinity; conditions: in vivo
[15] = Clearance in beagle dog at 1 mg/kg, iv or 5 mg/kg, po by LC-MS/MS analysis; format: ADME, organism-based, Canis lupus familiaris; conditions: in vivo

Row | SMILES | GI50 (OVCAR-3) [nM] | pKa [1] | AUC [2] [ng·h/mL] | IC50 [3] [nM] | solubility [4] [µg/mL] | GI50 (HCT-116 [5]) [nM] | Cmax [6] [ng/mL] | solubility [7] [µg/mL] | GI50 (MDA-MB-468) [nM] | IC50 (Cytochrome P450 3A4) [nM] | bioavailability [8] [%] | bioavailability [9] [%] | MTD [10] [mg/kg] | clearance [11] [mL/min/kg] | AUC(0-inf) [12] [ng·h/mL] | inhibition in vivo at 15 mg/kg (HT-29) [%] | inhibition in vivo at 15 mg/kg (HCT-116 [13]) [%] | AUC(0-inf) [14] [ng·h/mL] | clearance [15] [mL/min/kg]
1 | Cc1cc(-c2cnn3c(NC[C@H]4C[C@@](C)(O)C4)cc(NC4CCCC4)nc23)ccc1C(=O)NC1CC1 | 87 | 3.2 | 7300 | 2.6 | 3.6 (≈ 7.37 µM) | 14 | 2900 | 110 (≈ 225 µM) | 57 |  |  |  |  |  |  |  |  |  | 
2 | Cc1cc(-c2cnn3c(NC[C@H]4C[C@](C)(O)C4)cc(NC4CCCC4)nc23)ccc1C(=O)NC1CC1 | 210 | 3.2 |  | 5.3 | 3.6 (≈ 7.37 µM) | 49 |  | 110 (≈ 225 µM) | 130 |  |  |  |  |  |  |  |  |  | 
3 | Cc1cc(-c2cnn3c(NC[C@H]4CC[C@H](O)CC4)cc(Oc4cccnc4)nc23)ccc1C(=O)NC1CC1 | 270 | 3.7 | 700 | 2.8 | 2.1 (≈ 4.1 µM) | 50 | 190 | 360 (≈ 702 µM) | 160 |  |  |  |  |  |  |  |  |  | 
4 | Cc1cc(-c2cnn3c(NCCN4CCOCC4)cc(Oc4ccccc4)nc23)ccc1C(=O)NC1CC1 | 24 | 6.7 | 2700 | 3 | 1.6 (≈ 3.12 µM) | 11 | 1000 | 12000 (≈ 23400 µM) | 18 |  |  |  |  |  |  |  |  |  | 
5 | Cc1cc(-c2cnn3c(NCC4CCOCC4)cc(N[C@H]4CCCC[C@H]4O)nc23)ccc1C(=O)NC1CC1 | 9 | 3.3 | 2400 | 2 | 13 (≈ 25.1 µM) | 1 | 2200 | 410 (≈ 790 µM) | 3 |  |  |  |  |  |  |  |  |  | 
6 | Cc1cc(-c2cnn3c(NCC4CCOCC4)cc(N[C@@H](C4CC4)C(C)(C)O)nc23)ccc1C(=O)NC1CC1 | 80 | 3.5 | 20000 | 7 | 10 (≈ 18.8 µM) | 20 | 5500 | 470 (≈ 882 µM) | 60 | 3000 | 98 | 38 | 15 | 66 | 490 | 38 | 70 | 6900 | 13
7 | Cc1cc(-c2cnn3c(NCC4CC4)cc(NC4CCCC[C@H]4O)nc23)ccc1C(=O)NC1CC1 (single isomer, unassigned) | 15 | 3.4 | 3100 | 2.2 | 5.3 (≈ 11.2 µM) | 9 | 1700 | 170 (≈ 358 µM) | 20 | 2000 | 95 | 94 | 15 | 22 | 3700 | 53 | 72 | 14000 | 7.9
8 | Cc1cc(-c2cnn3c(NCC4CCOCC4)nc(Oc4ccccc4)nc23)ccc1C(=O)NC1CC1 | 190 | 1.6 | 1500 | 1.4 | 1.1 (≈ 2.21 µM) | 14 | 890 | 1.5 (≈ 3.01 µM) | 160 |  |  |  |  |  |  |  |  |  | 
9 | Cc1cc(-c2cnn3c(NC[C@H]4C[C@H](O)C4)cc(Oc4cccnc4)nc23)ccc1C(=O)NC1CC1 | 11 | 3.7 | 130 | 1.1 | 5.4 (≈ 11.1 µM) | 2 | 120 | 930 (≈ 1920 µM) | 2 |  |  |  |  |  |  |  |  |  | 
